These are literature values, as cited in paper PMC4067310, “From Pan-Reactive KV7 Channel Opener to Subtype Selective Opener/Inhibitor by Addition of a Methyl Group” (PLoS ONE, 2014).

The target in one data set is T1, KV7.4-W242L (Homo sapiens, UniProt P56696, W242L).
T1 construct: expressed in transfected cells; host or cells: Xenopus laevis oocytes injected with cRNA (pGEM-HE vector)
T1 sequence (P56696 1-695 W242L): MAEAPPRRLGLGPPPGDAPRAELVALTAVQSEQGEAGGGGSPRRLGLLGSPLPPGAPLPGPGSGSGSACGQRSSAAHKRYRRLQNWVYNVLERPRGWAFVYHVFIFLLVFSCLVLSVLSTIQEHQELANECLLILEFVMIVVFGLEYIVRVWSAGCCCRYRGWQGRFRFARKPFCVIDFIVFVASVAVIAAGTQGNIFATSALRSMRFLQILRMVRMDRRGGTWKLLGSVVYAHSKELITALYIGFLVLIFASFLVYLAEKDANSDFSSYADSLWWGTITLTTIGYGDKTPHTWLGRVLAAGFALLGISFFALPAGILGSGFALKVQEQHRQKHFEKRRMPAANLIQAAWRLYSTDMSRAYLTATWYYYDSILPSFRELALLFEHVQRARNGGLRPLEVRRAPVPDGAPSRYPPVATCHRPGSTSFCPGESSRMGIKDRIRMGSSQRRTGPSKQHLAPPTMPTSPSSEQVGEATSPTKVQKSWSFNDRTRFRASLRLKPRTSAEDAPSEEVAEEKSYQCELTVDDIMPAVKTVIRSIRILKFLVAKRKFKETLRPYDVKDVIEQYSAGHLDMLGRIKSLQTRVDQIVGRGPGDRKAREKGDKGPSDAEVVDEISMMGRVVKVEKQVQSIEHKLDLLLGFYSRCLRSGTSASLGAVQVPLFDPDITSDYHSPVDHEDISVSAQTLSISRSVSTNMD
As to conditions: cited from earlier work.

The next data set addresses T2, KV7.2-W236L (Homo sapiens, UniProt O43526, W236L).
T2 construct: expressed in transfected cells; host or cells: Xenopus laevis oocytes injected with cRNA (pGEM-HE vector)
Set-up: method as in PMID 20011514. As to conditions: all activating effects lost; cited from earlier work.

In the next data set the target is T3, KV7.4 (Homo sapiens, UniProt P56696).
T3 construct: expressed in transfected cells; host or cells: Xenopus laevis oocytes injected with cRNA (pGEM-HE vector)
T3 sequence (P56696 1-695): T1 sequence (P56696 1-695 W242L) with L242W
Also noted: method as in PMID 20011514. As to conditions: +40 mV; cited from earlier work.

Residue numbers refer to the chain shown, from its start.

T2 sequence (O43526 whole entry W236L): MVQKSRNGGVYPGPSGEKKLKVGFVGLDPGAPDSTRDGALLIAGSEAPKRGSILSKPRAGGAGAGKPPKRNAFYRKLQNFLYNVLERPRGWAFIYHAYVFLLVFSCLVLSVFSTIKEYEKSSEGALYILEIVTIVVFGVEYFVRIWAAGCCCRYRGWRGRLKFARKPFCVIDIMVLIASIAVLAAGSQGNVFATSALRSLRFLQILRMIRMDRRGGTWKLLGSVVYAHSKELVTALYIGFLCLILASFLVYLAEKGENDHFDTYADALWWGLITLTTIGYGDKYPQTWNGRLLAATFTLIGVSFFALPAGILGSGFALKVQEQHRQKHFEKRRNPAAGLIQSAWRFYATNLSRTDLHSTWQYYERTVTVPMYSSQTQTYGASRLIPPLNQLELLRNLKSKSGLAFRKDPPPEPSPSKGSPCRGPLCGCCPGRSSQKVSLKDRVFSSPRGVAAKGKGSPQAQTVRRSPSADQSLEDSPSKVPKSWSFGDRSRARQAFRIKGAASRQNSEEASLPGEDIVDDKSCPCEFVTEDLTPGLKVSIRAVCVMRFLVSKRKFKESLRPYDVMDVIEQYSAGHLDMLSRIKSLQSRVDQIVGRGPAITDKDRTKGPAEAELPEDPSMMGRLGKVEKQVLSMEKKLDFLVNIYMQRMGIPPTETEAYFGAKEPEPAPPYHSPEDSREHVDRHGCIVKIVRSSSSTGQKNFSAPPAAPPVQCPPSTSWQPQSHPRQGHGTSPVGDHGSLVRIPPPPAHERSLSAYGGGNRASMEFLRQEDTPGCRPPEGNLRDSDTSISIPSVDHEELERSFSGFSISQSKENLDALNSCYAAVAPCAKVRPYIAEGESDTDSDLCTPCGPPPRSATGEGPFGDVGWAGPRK

Regarding `C[C@H](NC(=O)/C=C/c1ccccc1F)c1ccc2c(c1)N(CC1CC1)CCO2` [(S)-2], the “effect on KV7.4-W242L” value at KV7.4-W242L is “fully insensitive”. Also, the “effect on KV7.2-W236L” value on KV7.2-W236L is listed as “purely inhibitory”. In addition, on KV7.4, the “efficacy, current amplitude % of control” value is 1927 % of control.
